How the values were obtained:
RPS19 = target: T1, RPS19 (Homo sapiens, UniProt P39019); assay: XL177A-DTB chemoproteomic profiling with XL177A competition, RPS19; type: binding; settings: RPS19 reporter ion intensity
T1 construct: endogenous in cells; host or cells: HEK 293AD lysate
Procedure: (§1) HEK 293AD cells were lysed as described above, and the lysate was cleared by centrifugation. Samples were diluted to 10 mg/mL, and 200 μL lysate (2 mg protein total) was incubated with the indicated concentrations of XL177A for 4 hours at RT, then 2 μM of WH114A for 4 additional hours. SDS was added to a final concentration of 1.2% (27.2 μL of a 10% stock), and denatured by heating to 80 °C for 5 minutes. After cooling to RT, 1125 μL 1X PBS was added to dilute the final SDS concentration to 0.2%. 50 μL streptavidin agarose slurry was added to each sample, followed by incubation at RT for 3 hours. After streptavidin enrichment, samples were washed vigorously (2×0.2% SDS, 3x PBS, 3x ddH2O). After the final wash, all supernatant was removed using a flat-bottom tip, and the resin was flash frozen and stored at −80 °C until workup for TMT labeling.
(§2) To remove rapigest, recovered supernatants were acidified with 10% TFA, incubated at 37 °C for 45 minutes, and centrifuged at 14,000 rpm for 15 minutes at 4 °C. Peptides were then desalted by C18, and dried by vacuum centrifugation. Dried peptides were reconstituted in 50 mM pH8.0 TEAB and labeled with TMT reagent at RT for 1 hour. TMT reactions were pooled and treated with hydroxylamine according to the manufacturer’s instructions. Peptide mixtures were then dried, reconstituted in 50 mM ammonium bicarbonate and desalted by SP3[53]. Eluted peptides were then analyzed by nanoflow LC-MS/MS as described[64] with a NanoAcquity UPLC system (Waters, Milford, MA) interfaced to a QExactive HF mass spectrometer (Thermofisher Scientific, San Jose, CA). TMT labeled peptides were injected onto a precolumn (4 cm POROS 10R2, Applied Biosystems, Framingham, MA), resolved on an analytical column (30 µm I.D. × 50 cm packed with 5 µm Monitor C18) and introduced to the mass spectrometer by ESI (spray voltage = 3.5 kV, flow rate ~30 nL/min). The mass spectrometer was operated in data dependent mode such that the 15 most abundant ions in each MS scan (m/z 300–2000, 120 K resolution, target = 3E6, lock mass for 445.120025 enabled) were subjected to MS/MS (m/z 100–2000, 30 K resolution, target = 1E5, max fill time = 100 ms). Dynamic exclusion was selected with a repeat count of 1 and an exclusion time of 30 seconds. MS/MS data was extracted to.mgf using mulitplierz scripts[54],[55] and searched against a forward-reverse human NCBI refseq database using Mascot version 2.6. Search parameters specified fixed carbamidomethylation of cysteine, fixed N-terminal and lysine TMT labelling, and variable oxidation (methionine). Additional multiplierz scripts were used to filter results to 1% FDR and derive protein-level aggregate reporter ion intensities using peptides mapping uniquely into the genome.

BZW2 = target: T2, BZW2 (Homo sapiens, UniProt Q9Y6E2); assay: XL177A-DTB chemoproteomic profiling with XL177A competition, BZW2; type: binding; settings: BZW2 reporter ion intensity
T2 construct: endogenous in cells; host or cells: HEK 293AD lysate
T2 sequence (Q9Y6E2 1-419): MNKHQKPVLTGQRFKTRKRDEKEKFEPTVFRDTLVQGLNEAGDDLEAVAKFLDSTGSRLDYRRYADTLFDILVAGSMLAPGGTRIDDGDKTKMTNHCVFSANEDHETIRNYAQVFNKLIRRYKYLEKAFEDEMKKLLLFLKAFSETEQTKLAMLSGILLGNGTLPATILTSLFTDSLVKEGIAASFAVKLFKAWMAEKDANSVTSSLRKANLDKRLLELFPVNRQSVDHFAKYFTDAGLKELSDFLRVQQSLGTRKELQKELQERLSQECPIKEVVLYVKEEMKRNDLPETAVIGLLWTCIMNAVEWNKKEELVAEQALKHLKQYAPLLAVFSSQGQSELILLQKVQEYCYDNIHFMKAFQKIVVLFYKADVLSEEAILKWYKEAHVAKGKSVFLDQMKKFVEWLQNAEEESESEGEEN
Procedure: as §1, with “Samples were diluted to 10 mg/mL, and 200 μL lysate (2 mg protein total) was incubated with the indicated concentrations of XL177A for 4 hours at RT, then 2 μM of WH114A for 4 additional hours.” left out
as §2

[1] = XL177A-DTB pulldown, HEK293AD lysate pre-treated 100nM XL177A
[2] = XL177A-DTB pulldown, HEK293AD lysate pre-treated 1uM XL177A
[3] = XL177A-DTB pulldown, HEK293AD lysate pre-treated 10uM XL177A
[4] = average of Run 1 and Run 2, 100nM XL177A
[5] = average of Run 1 and Run 2, 1uM XL177A
[6] = average of Run 1 and Run 2, 10uM XL177A

SMILES: CN1CCN(CCC(=O)Nc2ccc3c(=O)n(CC4(O)CCN(C(=O)[C@@H](CCCNC(=O)c5ccc6c(Cl)c7c(nc6c5)CCCC7)Cc5ccccc5)CC4)cnc3c2)CC1 [XL177A]
- Run 1 100nM 1 (RPS19; [1]): 201720
- Run 1 100nM 2 (RPS19; [1]): 193904
- Run 1 100nM 3 (RPS19; [1]): 198261
- Run 2 100nM 1 (RPS19; [1]): 185482
- Run 2 100nM 2 (RPS19; [1]): 186116
- Run 2 100nM 3 (RPS19; [1]): 181339
- Run 1 1uM 1 (RPS19; [2]): 206285
- Run 1 1uM 2 (RPS19; [2]): 969196
- Run 1 1uM 3 (RPS19; [2]): 327663
- Run 2 1uM 1 (RPS19; [2]): 160877
- Run 2 1uM 2 (RPS19; [2]): 741636
- Run 2 1uM 3 (RPS19; [2]): 244076
- Run 1 10uM 1 (RPS19; [3]): 152789
- Run 1 10uM 2 (RPS19; [3]): 213160
- Run 2 10uM 1 (RPS19; [3]): 210280
- Run 2 10uM 2 (RPS19; [3]): 197443
- AVE 100nM 1 (RPS19; [4]): 193601
- AVE 100nM 2 (RPS19; [4]): 190010
- AVE 100nM 3 (RPS19; [4]): 189800
- AVE 1uM 1 (RPS19; [5]): 183581
- AVE 1uM 2 (RPS19; [5]): 855416
- AVE 1uM 3 (RPS19; [5]): 285870
- AVE 10uM 1 (RPS19; [6]): 181534
- AVE 10uM 2 (RPS19; [6]): 205302
- Run 1 100nM 1 (BZW2; [1]): 6095061
- Run 1 100nM 2 (BZW2; [1]): 5618739
- Run 1 100nM 3 (BZW2; [1]): 5891848
- Run 2 100nM 1 (BZW2; [1]): 6367486
- Run 2 100nM 2 (BZW2; [1]): 5770311
- Run 2 100nM 3 (BZW2; [1]): 6244557
- Run 1 1uM 1 (BZW2; [2]): 5512643
- Run 1 1uM 2 (BZW2; [2]): 3810437
- Run 1 1uM 3 (BZW2; [2]): 5451627
- Run 2 1uM 1 (BZW2; [2]): 5833621
- Run 2 1uM 2 (BZW2; [2]): 3936167
- Run 2 1uM 3 (BZW2; [2]): 5735390
- Run 1 10uM 1 (BZW2; [3]): 4021260
- Run 1 10uM 2 (BZW2; [3]): 4066194
- Run 2 10uM 1 (BZW2; [3]): 4140296
- Run 2 10uM 2 (BZW2; [3]): 4394498
- AVE 100nM 1 (BZW2; [4]): 6231274
- AVE 100nM 2 (BZW2; [4]): 5694525
- AVE 100nM 3 (BZW2; [4]): 6068202
- AVE 1uM 1 (BZW2; [5]): 5673132
- AVE 1uM 2 (BZW2; [5]): 3873302
- AVE 1uM 3 (BZW2; [5]): 5593508
- AVE 10uM 1 (BZW2; [6]): 4080778
- AVE 10uM 2 (BZW2; [6]): 4230346

Reference: publication PMC7093416, “Selective USP7 inhibition elicits cancer cell killing through a p53-dependent mechanism” (Scientific Reports, 2020)
